Where a SMILES comes first, the peptide text is derived from it. Bridges are numbered along the chain shown (N, C = ends). The star is where a group is joined. DOTA = O=C(O)CN1CCN(CC(=O)O)CCN(CC(=O)*)CCN(CC(=O)O)CC1
Experiments:
Type in all cases: ADME, organism-based, Neoplasm
[1] = Drug level in tumor of human MDA-MB-435 cell-xenograft athymic nude mouse model at 10 uM, iv after 10 mins by optical imaging analysis; conditions: in vivo
[2] = Drug level in tumor of human MDA-MB-435 cell-xenograft athymic nude mouse model at 10 uM, iv after 4 hrs by optical imaging analysis; conditions: in vivo
[3] = Drug level in tumor of human MDA-MB-435 cell-xenograft athymic nude mouse model at 10 uM, iv by PET analysis; conditions: athymic nude mouse (human MDA-MB-435 xenograft), in vivo

Drug uptake [1]	Drug uptake [2]	Drug uptake [3]	Structure (SMILES)
Active	Active	Active	CC(=O)N[C@H](CSC1CC(=O)N(CCNC(=O)CCCCC[N+]2=C(/C=C/C3=C(Oc4ccc(S(=O)(=O)[O-])cc4)C(=C/C=C4/N(CCCCS(=O)(=O)[O-])c5ccc(S(=O)(=O)[O-])cc5C4(C)C)/CCC3)C(C)(C)c3cc(S(=O)(=O)[O-])ccc32)C1=O)C(=O)N[C@H]1CSSC[C@@H](C(N)=O)NC(=O)[C@H](CC(=O)O)NC(=O)[C@@H]2CCCN2C(=O)CNC(=O)[C@H](CCCCN)NC(=O)[C@H](CC(=O)O)NC(=O)CNC(=O)[C@H](CCCNC(=N)N)NC1=O.[Na+].[Na+].[Na+] (stereo not given in full)
	Active	Active	N=C(N)NCCC[C@@H]1NC(=O)[C@@H](NC(=O)[C@H](CS)NC(=O)CN2CCN(CC(=O)O)CCN(CC(=O)O)CCN(CC(=O)O)CC2)CSSC[C@@H](C(N)=O)NC(=O)[C@H](CC(=O)O)NC(=O)[C@@H]2CCCN2C(=O)CNC(=O)[C@H](CCCCN)NC(=O)[C@H](CC(=O)O)NC(=O)CNC1=O ({DOTA}-CCRGDKGPDC-NH2; disulfide 2-10)
	Active	Active	CC(=O)N[C@@H](CS)C(=O)N[C@H]1CSSC[C@@H](C(N)=O)NC(=O)[C@H](CC(=O)O)NC(=O)[C@@H]2CCCN2C(=O)CNC(=O)[C@H](CCCCN)NC(=O)[C@H](CC(=O)O)NC(=O)CNC(=O)[C@H](CCCNC(=N)N)NC1=O (Ac-CCRGDKGPDC-NH2; disulfide 2-10)
Active	Active	Active	CC1(C)C(/C=C/C2=C(Oc3ccc(S(=O)(=O)[O-])cc3)C(=C/C=C3/N(CCCCS(=O)(=O)[O-])c4ccc(S(=O)(=O)[O-])cc4C3(C)C)/CCC2)=[N+](CCCCCC(=O)NCCN2C(=O)CC(SC[C@@H](NC(=O)CN3CCN(CC(=O)O)CCN(CC(=O)O)CCN(CC(=O)O)CC3)C(=O)N[C@H]3CSSC[C@@H](C(N)=O)NC(=O)[C@H](CC(=O)O)NC(=O)[C@@H]4CCCN4C(=O)CNC(=O)[C@H](CCCCN)NC(=O)[C@H](CC(=O)O)NC(=O)CNC(=O)[C@H](CCCNC(=N)N)NC3=O)C2=O)c2ccc(S(=O)(=O)[O-])cc21.[Na+].[Na+].[Na+] (stereo not given in full)
